The target in this assay is T1, Leucine-rich repeat-containing G-protein coupled receptor 4 (Homo sapiens, UniProt Q9BXB1).
T1 sequence (Q9BXB1 whole entry): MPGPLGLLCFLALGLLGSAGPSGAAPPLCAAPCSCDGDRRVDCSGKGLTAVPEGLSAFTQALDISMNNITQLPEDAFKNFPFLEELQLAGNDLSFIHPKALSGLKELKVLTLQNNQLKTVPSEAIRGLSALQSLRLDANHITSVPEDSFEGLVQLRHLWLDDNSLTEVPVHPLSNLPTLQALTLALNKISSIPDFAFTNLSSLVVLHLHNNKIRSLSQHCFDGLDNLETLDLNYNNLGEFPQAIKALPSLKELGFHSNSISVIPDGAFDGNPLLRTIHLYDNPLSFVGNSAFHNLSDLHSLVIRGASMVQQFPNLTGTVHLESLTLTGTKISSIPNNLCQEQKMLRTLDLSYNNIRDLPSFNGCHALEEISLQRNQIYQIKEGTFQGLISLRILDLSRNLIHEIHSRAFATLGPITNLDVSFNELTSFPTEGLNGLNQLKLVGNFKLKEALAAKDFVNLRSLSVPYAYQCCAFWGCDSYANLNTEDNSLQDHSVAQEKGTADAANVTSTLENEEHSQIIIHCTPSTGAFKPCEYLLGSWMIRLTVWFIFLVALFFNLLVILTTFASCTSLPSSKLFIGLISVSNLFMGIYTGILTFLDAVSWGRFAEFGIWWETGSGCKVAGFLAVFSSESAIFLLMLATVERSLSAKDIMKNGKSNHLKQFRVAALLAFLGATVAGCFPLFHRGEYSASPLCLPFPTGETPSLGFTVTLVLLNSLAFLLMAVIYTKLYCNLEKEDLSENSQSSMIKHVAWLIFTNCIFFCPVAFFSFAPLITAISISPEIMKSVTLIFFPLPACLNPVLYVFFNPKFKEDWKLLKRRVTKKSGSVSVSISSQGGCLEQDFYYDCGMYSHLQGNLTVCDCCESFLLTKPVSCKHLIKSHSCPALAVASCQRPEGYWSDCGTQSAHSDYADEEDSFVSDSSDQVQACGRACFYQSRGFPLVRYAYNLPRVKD
As to the kind of experiment: Agonist activity at LGR4 (unknown origin) by arrestin technology based assay.

The values below come from ChEMBL document CHEMBL5518235, “Identification of Novel Series of Potent and Selective Relaxin Family Peptide Receptor 1 (RXFP1) Agonists” (J Med Chem, 2024).

For orientation: EC50 means the concentration giving half of the maximal effect. A lower EC50 goes with an effect from little substance.

For `COc1cc(F)c(O[C@H]2CC[C@@](C)(C(=O)O)CC2)cc1C(=O)N[C@@H]1[C@H]2CC[C@H](C2)[C@@H]1C(=O)Nc1ccc(F)c(S(F)(F)(F)(F)F)c1`, a half-maximal response (EC50) required 16 µM.
